Experimental data as given in patent US20110152166A1, “METHOD OF MODULATION OF PROTEIN PHOSPHORYLATION-DEPENDENT CONFORMATIONAL TRANSITIONS WITH LOW MOLECULAR WEIGHT COMPOUNDS” (priority 2006, published 2011).
Numbering of substitutions follows the chain as printed. Square brackets hold non-standard residues; d marks the D form. Ends that are not written are not given here. pS = N[C@@H](COP(=O)(O)O)C(=O)O

Key:
GST-PDK1 [Gln150Ala] = biological target: T1, GST-PDK1 [Gln150Ala] (Homo sapiens, UniProt O15530, Q150A); test: PDK1 activity assay with T308tide; format: biochemical; settings: for AC50 / Max. activity: GST-PDK1 [Gln150Ala]; for activation of PDK1 mutant (in words): PDK1[Gln150Ala], 20 μM
T1 construct: different protein constructs, comprising the full length protein or the catalytic domain alone; made in house; host or cells: HEK293 cells (pEBG-2T-PDK1 mutant)
T1 sequence (O15530 1-556 Q150A): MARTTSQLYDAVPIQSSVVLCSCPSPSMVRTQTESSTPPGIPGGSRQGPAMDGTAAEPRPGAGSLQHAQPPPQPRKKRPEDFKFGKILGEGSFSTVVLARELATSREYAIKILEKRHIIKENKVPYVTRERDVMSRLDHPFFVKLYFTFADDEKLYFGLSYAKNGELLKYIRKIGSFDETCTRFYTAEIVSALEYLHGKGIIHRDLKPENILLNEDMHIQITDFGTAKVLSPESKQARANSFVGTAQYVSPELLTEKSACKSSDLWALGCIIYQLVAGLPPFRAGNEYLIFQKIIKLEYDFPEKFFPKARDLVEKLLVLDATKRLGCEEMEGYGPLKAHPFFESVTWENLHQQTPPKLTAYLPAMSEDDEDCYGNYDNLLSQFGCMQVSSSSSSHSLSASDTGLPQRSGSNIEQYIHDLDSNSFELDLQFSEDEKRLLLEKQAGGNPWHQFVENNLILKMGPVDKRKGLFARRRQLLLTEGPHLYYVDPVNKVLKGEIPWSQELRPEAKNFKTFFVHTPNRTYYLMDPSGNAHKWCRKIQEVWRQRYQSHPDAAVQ
Procedure: Protein kinase activity tests were performed essentially as previously described (Balendran et al., 2000; Biondi et al., 2000; Biondi et al., 2001). Substrates used were either MBP (for PKCζ or polypeptides (Crosstide for PKB, S6K, SGK and PRK2; T308tide for PDK1, and Kemptide for PKA). PKA (Sigma) was measured in the presence of 100 μM cAMP. Alternatively, assays were performed in a 96 well format, aliquots spotted on p81 phosphocellulose papers (Whatmann), washed in 0.01% phosphoric acid, dried, and then exposed and analysed using Phospholmager technology (Storm, Molecular Dynamics). Activity measurements were performed in duplicates with less than 10% difference between duplicate pairs. Experiments were repeated at least twice, although most of the experiments were repeated multiple times, with similar results.
PDK1 activity assay was performed in a 20 μl mix containing 50 mM Tris-HCl pH 7.5, 0.05 mg/ml BSA, 0.1% β-mercaptoethanol, 10 mM MgCl2, 100 μM [γ^32P]ATP (5-50 cpm/pmol), 0.003% Brij, 150 ng PDK1, and T308tide (from 0.05 to 1 mM). PDK1 specific activity was approximately 5 U/mg (when measured at 1 mM T308tide). The effect of small compounds on PDK1 was repeated with proteins from different purification batches and with different protein constructs, comprising the full length protein or the catalytic domain alone, with similar results. […] This variability may be due to the PIFtide/compound-stimulated autophosphorylation of the activation loop in certain preparations having less than a 1:1 molar phosphorylation stoichiometry at this site.
PDK1 activity was measured at room temperature using a polypeptide substrate derived from the activation loop phosphorylation site of PKB, T308tide (0.1 mM). […] GST-PDK1 wt was purified in numerous occasions and the maximal activation level of different batches varied between 3 and 8 fold activation with PIFtide or compound 1. Variations in the basal activity and fold activation were also observed in mutants. Therefore, comparisons in the maximal level of activation between mutants should be performed with care. The data shown are from an experiment where PIFtide concentrations were tested between 50 nM and 20 µM and compound 1 concentrations were between 5 μM and 200 μM, in triplicate. AC50 and max. activity were estimated by fitting the data to a hyperbola using Kaleidagraph software. One Unit of PDK1 activity was defined as the amount required to catalyse the phosphorylation of 1 nmol of the T308tide in 1 min.

GST-PDK1 1-556 = biological target: T2, GST-PDK1 1-556 (Homo sapiens, UniProt O15530); test: Surface plasmon resonance, GST-PDK1 binding to biotin-PIFtide and displacement by compounds; settings: competition, pre-incubation with PDK1
T2 construct: made in house; host or cells: HEK293
T2 sequence (O15530 1-556): T1 sequence (O15530 1-556 Q150A) with A150Q
Procedure: FIG. 3—Small compounds displace the binding of PDK1 1-556 to the HM peptide derived from its substrate PRK2, PIFtide. Surface plasmon resonance measurements were carried out on a BiaCore system to measure the interaction between GST-PDK1 and biotin-PIFtide coupled to a streptavidin-coated chip. (A) Direct measurement of PDK1 interaction with biotin-PIFtide. PDK1 was injected at the indicated concentrations (nM). For the following competition experiments, PDK1 45 nM was used. (B) PDK1 interaction with biotin-PIFtide was abolished by pre-incubation with PIFtide. […] The data points represent the maximal response units obtained after 30 s injection in the presence of the indicated concentration of compound. In (A) and (B) the spikes at the start and end of injection have been eliminated for clarity.
Binding of PDK1 to PIFtide was analysed by surface plasmon resonance on a BiaCore 3000 system using a streptavidin-coated Sensor chip (SA) and biotin-PIFtide, as previously described (Biondi et al., 2001). Biotin-PIFtide was bound to the chip to a level of 15 to 25 response units in different experiments. GST-PDK1 bound to biotin-PIFtide with an affinity of 90 nM, in good agreement with previous data obtained using the BiaCore system. For interaction-displacement assays, GST-PDK1 (60 nM) was injected (30 μl/min) in a buffer containing 10 mM HEPES pH 7.5, 150 mM NaCl, 0.005% Tween20, 1 mM DTT and 1% DMSO, in the presence or absence of compounds. GST-PDK1 was pre-incubated with compounds for 1 to 10 minutes before injection into the system, with similar results. Experiments were performed at least twice using different biotin-PIFtide coated chips, with similar results obtained on each occasion.

AC50 (GST-PDK1 [Gln150Ala]) | Max. activity (GST-PDK1 [Gln150Ala]) | activation of PDK1 mutant (in words) (GST-PDK1 [Gln150Ala]) | displacement of PDK1 binding to biotin-PIFtide (in words) (GST-PDK1 1-556) | Compound
55 ± 9 µM | 1.12 ± 0.06 U/mg | still activated | able to disrupt the binding | O=C(O)CSC(CC(=O)c1ccc(Cl)cc1)c1ccccc1 (stereo not drawn) [Compound 1]
0.5 ± 0.06 µM | 1.55 ± 0.06 U/mg |  | abolished this interaction | REPRILSEEEQEMFRDFDYIADWC [PIFtide, reference compound]
 |  | completely abolished |  | P-HM-RSK: phosphorylated HM polypeptide of RSK: KGAGGGGFRGFS(P)FVA (KGAGGGGFRGF[pS]FVA)

Compound | AC50 (GST-PDK1 [Gln150Ala]) | Max. activity (GST-PDK1 [Gln150Ala]) | activation of PDK1 mutant (in words) (GST-PDK1 [Gln150Ala]) | displacement of PDK1 binding to biotin-PIFtide (in words) (GST-PDK1 1-556)
COC(=O)CSC(CC(=O)c1ccc(Cl)cc1)c1ccccc1 (stereo not drawn) [Compound 2] |  |  |  | did not displace the binding significantly
